The target in the assay is GABAA receptor. The assay can be described thus: Steroid inhibition of [35S]-TBPS binding, rat brain cortical membranes. The following applies: 3 nM [35S]-TBPS, in the presence of 5 mM GABA. As to the method:
[^35S]-t-Butylbicyclophosphorothionate (TBPS) binding assays using rat brain cortical membranes in the presence of 5 mM GABA has been described (Gee et al, J. Pharmacol. Exp. Ther. 1987, 241, 346-353; Hawkinson et al, Mol. Pharmacol. 1994, 46, 977-985; Lewin, A. H et al., Mol. Pharmacol. 1989, 35, 189-194).
Briefly, cortices are rapidly removed following decapitation of carbon dioxide-anesthetized Sprague-Dawley rats (200-250 g). The cortices are homogenized in 10 volumes of ice-cold 0.32 M sucrose using a glass/teflon homogenizer and centrifuged at 1500×g for 10 min at 4° C. The resultant supernatants are centrifuged at 10,000×g for 20 min at 4° C. to obtain the P2 pellets. The P2 pellets are resuspended in 200 mM NaCl/50 mM Na—K phosphate pH 7.4 buffer and centrifuged at 10,000×g for 10 min at 4° C. This washing procedure is repeated twice and the pellets are resuspended in 10 volumes of buffer. Aliquots ([…]) of the membrane suspensions are incubated with 3 nM [^35S]-TBPS and […] aliquots of test drug dissolved in dimethyl sulfoxide (DMSO) (final 0.5%) in the presence of 5 mM GABA. The incubation is brought to a final volume of 1.0 mL with buffer. Nonspecific binding is determined in the presence of […] and ranged from 15 to 25%. Following a 90 min incubation at room temp, the assays are terminated by filtration through glass fiber filters (Schleicher and Schuell No. 32) using a cell harvester (Brandel) and rinsed three times with ice-cold buffer. Filter bound radioactivity is measured by liquid scintillation spectrometry. Non-linear curve fitting of the overall data for each drug averaged for each concentration is done using Prism (GraphPad). […] The concentration of test compound producing 50% inhibition (IC50) of specific binding and the maximal extent of inhibition (Imax) are determined for the individual experiments with the same model used for the overall data and then the means±SEM.s of the individual experiments are calculated.
Various compounds are or can be screened to determine their potential as modulators of [^35S]-TBPS binding in vitro. These assays are or can be performed in accordance with the above
Turning to `COC[C@@]1(O)CC[C@H]2[C@@H](CC[C@@H]3[C@@H]2CC[C@@]2(C)[C@H]3CC[C@@H]2[C@](C)(O)Cn2cc(C#N)cn2)C1` [Compound 19, 1-((S)-2-hydroxy-2-((3R,5S,8R,9R,10S,13S,14S,17S)-3-hydroxy-3-(methoxymethyl)-13-methylhexadecahydro-1H-cyclopenta[a]phenanthren-17-yl)propyl)-1H-pyrazole-4-carbonitrile], the IC50 (commonly the concentration needed to halve the response being measured) was below 100 nM.

Regarding `COC[C@@]1(O)CC[C@H]2[C@@H](CC[C@@H]3[C@@H]2CC[C@@]2(C)[C@H]3CC[C@@H]2[C@@](C)(O)Cn2cc(C#N)cn2)C1` [Compound 20, 1-((R)-2-hydroxy-2-((3R,5S,8R,9R,10S,13S,14S,17S)-3-hydroxy-3-(methoxymethyl)-13-methylhexadecahydro-1H-cyclopenta[a]phenanthren-17-yl)propyl)-1H-pyrazole-4-carbonitrile], the IC50 lay within 100 to 1000 nM.

Regarding `C[C@@]1(O)CC[C@H]2[C@H](CC[C@@H]3[C@@H]2CC[C@]2(C)[C@@H](C(F)(F)Cn4cc(C#N)cn4)CC[C@@H]32)C1` [Compound 21, 1-(2,2-difluoro-2-((3R,5R,8R,9R,10S,13S,14S,17S)-3-hydroxy-3,13-dimethylhexadecahydro-1H-cyclopenta[a]phenanthren-17-yl)ethyl)-1H-pyrazole-4-carbonitrile], the IC50 is below 100 nM.

Take `CCC[C@@]1(O)CC[C@H]2[C@H](CC[C@@H]3[C@@H]2CC[C@@]2(C)[C@H]3CC[C@@H]2[C@](C)(O)Cn2ccc(C#N)n2)C1` [Compound 22, 1-((S)-2-hydroxy-2-((3R,5R,8R,9R,10S,13S,14S,17S)-3-hydroxy-13-methyl-3-propylhexadecahydro-1H-cyclopenta[a]phenanthren-17-yl)propyl)-1H-pyrazole-3-carbonitrile]: the concentration for half-maximal inhibition (IC50) is below 100 nM.

For the compound `CCC[C@@]1(O)CC[C@H]2[C@H](CC[C@@H]3[C@@H]2CC[C@@]2(C)[C@H]3CC[C@@H]2[C@@](C)(O)Cn2ccc(C#N)n2)C1` [Compound 23, 1-((R)-2-hydroxy-2-((3R,5R,8R,9R,10S,13S,14S,17S)-3-hydroxy-13-methyl-3-propylhexadecahydro-1H-cyclopenta[a]phenanthren-17-yl)propyl)-1H-pyrazole-3-carbonitrile], the IC50 lay within 100 to 1000 nM.

Consider `CCOC[C@@]1(O)CC[C@@]2(C)[C@H](CC[C@@H]3[C@@H]2CC[C@@]2(C)[C@H]3CC[C@@H]2[C@](C)(O)Cn2cc(C#N)cn2)C1` [Compound 24, 1-((S)-2-((3R,5R,8R,9S,10S,13S,14S,17S)-3-(ethoxymethyl)-3-hydroxy-10,13-dimethylhexadecahydro-1H-cyclopenta[a]phenanthren-17-yl)-2-hydroxypropyl)-1H-pyrazole-4-carbonitrile], for which the 50% inhibitory concentration (IC50) is below 100 nM.

Turning to `CCOC[C@@]1(O)CC[C@@]2(C)[C@H](CC[C@@H]3[C@@H]2CC[C@@]2(C)[C@H]3CC[C@@H]2[C@@](C)(O)Cn2cc(C#N)cn2)C1` [Compound 25, 1-((R)-2-((3R,5R,8R,9S,10S,13S,14S,17S)-3-(ethoxymethyl)-3-hydroxy-10,13-dimethylhexadecahydro-1H-cyclopenta[a]phenanthren-17-yl)-2-hydroxypropyl)-1H-pyrazole-4-carbonitrile], the 50% inhibitory concentration (IC50) lay in the range of 100 to 1000 nM.

Turning to `CCC[C@@]1(O)CC[C@@]2(C)[C@H](CC[C@@H]3[C@@H]2CC[C@@]2(C)[C@H]3CC[C@@H]2[C@](C)(O)Cn2cc(C#N)cn2)C1` [Compound 26, 1-((S)-2-hydroxy-2-((3R,5R,8R,9S,10S,13S,14S,17S)-3-hydroxy-10,13-dimethyl-3-propylhexadecahydro-1H-cyclopenta[a]phenanthren-17-yl)propyl)-1H-pyrazole-4-carbonitrile], the half-inhibitory concentration (IC50) is below 100 nM.

Regarding `CCC[C@@]1(O)CC[C@@]2(C)[C@H](CC[C@@H]3[C@@H]2CC[C@@]2(C)[C@H]3CC[C@@H]2[C@@](C)(O)Cn2cc(C#N)cn2)C1` [Compound 27, 1-((R)-2-hydroxy-2-((3R,5R,8R,9S,10S,13S,14S,17S)-3-hydroxy-10,13-dimethyl-3-propylhexadecahydro-1H-cyclopenta[a]phenanthren-17-yl)propyl)-1H-pyrazole-4-carbonitrile], the IC50 lay within 100 to 1000 nM.

For the compound `C[C@@]1(O)CC[C@H]2[C@H](CC[C@@H]3[C@@H]2CC[C@]2(C)[C@@H](C4(Cn5cc(C#N)cn5)COC4)CC[C@@H]32)C1` [Compound 28, 1-((3-((3R,5R,8R,9R,10S,13S,14S,17S)-3-hydroxy-3,13-dimethylhexadecahydro-1H-cyclopenta[a]phenanthren-17-yl)oxetan-3-yl)methyl)-1H-pyrazole-4-carbonitrile], the IC50 was below 100 nM.

As to `COC[C@@]1(O)CC[C@H]2[C@H](CC[C@@H]3[C@@H]2CC[C@@]2(C)[C@H]3CC[C@@H]2[C@](C)(O)Cn2cc(C#N)cn2)C1` [Compound 29, 1-((S)-2-hydroxy-2-((3R,5R,8R,9R,10S,13S,14S,17S)-3-hydroxy-3-(methoxymethyl)-13-methylhexadecahydro-1H-cyclopenta[a]phenanthren-17-yl)propyl)-1H-pyrazole-4-carbonitrile], the IC50 was below 100 nM.

As for `COC[C@@]1(O)CC[C@H]2[C@H](CC[C@@H]3[C@@H]2CC[C@@]2(C)[C@H]3CC[C@@H]2[C@@](C)(O)Cn2cc(C#N)cn2)C1` [Compound 30, 1-((R)-2-hydroxy-2-((3R,5R,8R,9R,10S,13S,14S,17S)-3-hydroxy-3-(methoxymethyl)-13-methylhexadecahydro-1H-cyclopenta[a]phenanthren-17-yl)propyl)-1H-pyrazole-4-carbonitrile], the concentration for half-maximal inhibition (IC50) was 100 to 1000 nM.

As for `CC(=O)c1cnn(C[C@@](C)(O)[C@H]2CC[C@H]3[C@@H]4CC[C@@H]5C[C@](C)(O)CC[C@@H]5[C@H]4CC[C@@]32C)c1` [Compound 31, 1-(1-((S)-2-hydroxy-2-((3R,5R,8R,9R,10S,13S,14S,17S)-3-hydroxy-3,13-dimethylhexadecahydro-1H-cyclopenta[a]phenanthren-17-yl)propyl)-1H-pyrazol-4-yl)ethanone], the half-maximal inhibitory concentration (IC50) was below 100 nM.

`CC[C@H]1C[C@H]2[C@H](CC[C@@H]3[C@@H]2CC[C@@]2(C)[C@H]3CC[C@@H]2[C@](C)(O)Cn2cc(C#N)cn2)C[C@]1(C)O` [Compound 34, 1-((S)-2-((2S,3S,5R,8R,9R,10S,13S,14S,17S)-2-ethyl-3-hydroxy-3,13-dimethylhexadecahydro-1H-cyclopenta[a]phenanthren-17-yl)-2-hydroxypropyl)-1H-pyrazole-4-carbonitrile]: the half-maximal inhibitory concentration (IC50) is below 100 nM.

With `CC[C@H]1C[C@H]2[C@H](CC[C@@H]3[C@@H]2CC[C@@]2(C)[C@H]3CC[C@@H]2[C@@](C)(O)Cn2cc(C#N)cn2)C[C@]1(C)O` [Compound 35, 1-((R)-2-((2S,3S,5R,8R,9R,10S,13S,14S,17S)-2-ethyl-3-hydroxy-3,13-dimethylhexadecahydro-1H-cyclopenta[a]phenanthren-17-yl)-2-hydroxypropyl)-1H-pyrazole-4-carbonitrile], the 50% inhibitory concentration (IC50) is 100 to 1000 nM.

With `CCC[C@@]1(O)CC[C@H]2[C@H](CC[C@@H]3[C@@H]2CC[C@@]2(C)[C@H]3CC[C@@H]2[C@@](C)(Cn2cc(C#N)cn2)OC)C1` [Compound 36, 1-((S)-2-((3R,5R,8R,9R,10S,13S,14S,17S)-3-hydroxy-13-methyl-3-propylhexadecahydro-1H-cyclopenta[a]phenanthren-17-yl)-2-methoxypropyl)-1H-pyrazole-4-carbonitrile], the half-inhibitory concentration (IC50) fell in the range of 100 to 1000 nM.

As for `CCC[C@@]1(O)CC[C@H]2[C@H](CC[C@@H]3[C@@H]2CC[C@@]2(C)[C@H]3CC[C@@H]2[C@](C)(Cn2cc(C#N)cn2)OC)C1` [Compound 37, 1-((R)-2-((3R,5R,8R,9R,10S,13S,14S,17S)-3-hydroxy-13-methyl-3-propylhexadecahydro-1H-cyclopenta[a]phenanthren-17-yl)-2-methoxypropyl)-1H-pyrazole-4-carbonitrile], the IC50 was 100 to 1000 nM.

For `COC[C@@]1(O)CC[C@H]2[C@H](CC[C@@H]3[C@@H]2CC[C@]2(C)[C@@H](C(F)(F)Cn4cc(C#N)cn4)CC[C@@H]32)C1` [Compound 38, 1-(2,2-difluoro-2-((3R,5R,8R,9R,10S,13S,14S,17S)-3-hydroxy-3-(methoxymethyl)-13-methylhexadecahydro-1H-cyclopenta[a]phenanthren-17-yl)ethyl)-1H-pyrazole-4-carbonitrile], the concentration for half-maximal inhibition (IC50) was below 100 nM.

The record behind these values is patent US20250236639A1, “NEUROACTIVE STEROIDS AND COMPOSITIONS THEREOF” (Sage Therapeutics, Inc., priority 2019, published 2025).
